PMC4147353 (Nature Communications, 2014)
One block for each compound: values may come before it.

Assays:
USP7 = USP7 (Homo sapiens, UniProt Q93009); test: MALDI-TOF DUB assay, inhibitor IC50 on USP7; assay type: biochemical; details: for potency for USP7 relative to the second most sensitive DUB on the panel (USP21): from IC50 values
panel of 32 DUBs = assay type: biochemical, human
[1] = assay type: physicochemical; details: 1 mM DTT or 0.5 mM TCEP, 30 °C for 1 h, DUB assay conditions; data not shown

USP7, sequence (Q93009 whole entry): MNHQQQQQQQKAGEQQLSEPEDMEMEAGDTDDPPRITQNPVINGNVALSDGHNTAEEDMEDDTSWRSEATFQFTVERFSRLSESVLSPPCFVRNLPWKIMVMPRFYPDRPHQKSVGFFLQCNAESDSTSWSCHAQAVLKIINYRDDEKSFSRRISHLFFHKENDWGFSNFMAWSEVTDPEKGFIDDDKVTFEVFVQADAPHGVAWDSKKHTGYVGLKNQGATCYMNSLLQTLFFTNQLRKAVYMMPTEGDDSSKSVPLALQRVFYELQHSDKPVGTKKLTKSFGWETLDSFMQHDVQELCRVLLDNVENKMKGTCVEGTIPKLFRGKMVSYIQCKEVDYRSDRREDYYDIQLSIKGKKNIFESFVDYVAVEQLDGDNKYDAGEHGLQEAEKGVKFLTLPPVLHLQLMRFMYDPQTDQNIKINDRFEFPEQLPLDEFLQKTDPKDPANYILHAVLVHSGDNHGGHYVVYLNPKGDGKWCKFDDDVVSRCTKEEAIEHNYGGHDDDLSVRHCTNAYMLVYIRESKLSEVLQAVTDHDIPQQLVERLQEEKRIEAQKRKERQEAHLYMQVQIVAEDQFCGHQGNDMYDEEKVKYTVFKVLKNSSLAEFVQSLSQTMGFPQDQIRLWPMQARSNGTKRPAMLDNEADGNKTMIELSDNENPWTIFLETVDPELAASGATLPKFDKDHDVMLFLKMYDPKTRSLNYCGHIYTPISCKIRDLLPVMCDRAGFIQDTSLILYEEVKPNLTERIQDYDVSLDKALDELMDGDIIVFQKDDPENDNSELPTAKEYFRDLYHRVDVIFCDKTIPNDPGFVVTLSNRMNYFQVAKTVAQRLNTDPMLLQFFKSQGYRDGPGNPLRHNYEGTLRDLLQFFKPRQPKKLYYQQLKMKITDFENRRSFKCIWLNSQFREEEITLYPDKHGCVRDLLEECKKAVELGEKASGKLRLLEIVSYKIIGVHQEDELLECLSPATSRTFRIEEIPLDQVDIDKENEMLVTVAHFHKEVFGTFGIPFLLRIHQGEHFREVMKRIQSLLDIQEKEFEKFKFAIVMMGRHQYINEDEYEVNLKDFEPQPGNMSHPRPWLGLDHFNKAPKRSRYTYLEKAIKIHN

potency for USP7 relative to the second most sensitive DUB on the panel (USP21) (USP7): five- to eightfold higher potency
Compound: Cc1ccc(S(=O)(=O)/C=C/C#N)cc1 [BAY 11-7082]

Compound: N#Cc1nc2c(nc1C#N)-c1ccc(Cl)cc1C2=O [HBX 41,108]
number of DUBs inhibited more than 70% (panel of 32 DUBs; of the 32 DUBs tested, at 5 μM): 25

potency for USP7 relative to the second most sensitive DUB on the panel (USP21) (USP7): five- to eightfold higher potency | potency for USP7 relative to HBX 41,108 (USP7; ratio of IC50 values, 0.08 μM versus 5.97 μM): 70 fold
Compound: Cc1ccc(S(=O)(=O)c2ccc([N+](=O)[O-])o2)cc1 [NSC 697923]

Compound: N#CSc1cc(SC#N)c(N)nc1N [PR-619]
number of DUBs inhibited (panel of 32 DUBs; of the 32 tested DUBs): 27

Compound: CCC[C@H](NC(=O)/C(C#N)=C/c1cccc(Br)n1)c1ccccc1 [WP1130]
reaction with reducing agents DTT and TCEP [1]: significantly reacted with both DTT and TCEP
